Assay results: patent publication US10919935B2, “Antimicrobial peptide derived from myxinidin peptide and uses thereof” (INDUSTRY-ACADEMIC COOPERATION FOUNDATION, CHOSUN UNIVERSITY, priority 2015, dated 2021)
Residues, ends and D or L forms follow the SMILES beside them.

What was measured:
[1] = system: human skin keratinocyte cells infected with bacteria having tolerance to antibiotics; assay: Migration of infected skin keratinocyte cells (scrape wound); type: cell-based; conditions: peptide at 2 times MIC
Source text: To determine the wound healing effect of the peptide of the present invention by activating migration of skin keratinocyte cells infected with Acinetobacter baumannii, Pseudomonas aeruginosa, or Staphylococcus aureus, which are the bacterial strain having tolerance to antibiotics, the adhered cells were damaged to have an infection followed by a treatment with myxinidin 2 or myxinidin 3. The resulting cells were then observed under a microscope.
Specifically, human skin keratinocyte cells were cultured at 1×10^6 cells/ml, and then scraped off using a tip. Then, the cells were infected with Staphylococcus aureus, Acinetobacter baumannii, or Pseudomonas aeruginosa, which are the bacterial strain having tolerance to antibiotics, followed by a treatment with the peptide at a concentration that is 2 times higher than the minimum inhibitory concentration. Cell migration was then observed under a microscope.

[2] = system: Pseudomonas aeruginosa 4076; assay: Anti-microbial disk diffusion susceptibility test with gelatin; type: cell-based; conditions: 0.1% gelatin
Source text: (§1) FIGS. 4A to 4C show the results of determining the antimicrobial activity when the peptides of the present invention are admixed with gelatin used as a wound moisturizing agent. FIG. 4A: Determination of survival ratio of skin keratinocyte cells in accordance with a change in gelatin concentration; FIG. 4B: Measurement of minimum inhibitory concentration (MIC, μM) of the peptides for Staphylococcus aureus (S. aureus 3018), Acinetobacter baumannii (A. baumannii 719705), and Pseudomonas aeruginosa (P. aeruginosa 4076), in which the result is shown for different gelatin concentrations; FIG. 4C: Result of the anti-microbial disk diffusion susceptibility test carried out for Staphylococcus aureus (S. aureus 3018), Acinetobacter baumannii (A. baumannii 719705), and Pseudomonas aeruginosa (P. aeruginosa 4076), in which the result is shown for different peptide concentrations and also for the presence or absence of gelatin co-blending.
(§2) To specifically determine the antimicrobial activity at the time of mixing the synthetic peptide of the present invention with gelatin, myxinidin 2 and myxinidin 3 synthetic peptides were admixed with 0.1% gelatin. Furthermore, to determine the antimicrobial activity, a minimum inhibitory concentration measurement and an anti-microbial disk diffusion susceptibility test as an agar diffusion method were carried out for Acinetobacter baumannii, Pseudomonas aeruginosa, and Staphylococcus aureus.
(§3) Specifically, cultured Acinetobacter baumannii, Pseudomonas aeruginosa, and Staphylococcus aureus were diluted to a concentration of 2×10^5 cells/ml, admixed with a solution in which 0.1% gelatin is mixed with 1% agarose, and cultured. To see the antimicrobial activity, the peptide was applied on a 6 mm round disk, in which the peptide was applied at various different concentrations, and the diffusion level was measured.

[3] = system: Staphylococcus aureus 3018; assay: as above; type: cell-based; conditions: 0.1% gelatin
Source text: as §1, §2, §3

[4] = system: Acinetobacter baumannii 719705; assay: as above; type: cell-based; conditions: 0.1% gelatin
Source text: as §1, §2, §3

[5] = system: TNF-α, IL-6, and IL-8; assay: ELISA of cytokines and chemokine in infected skin keratinocyte cells; type: cell-based, human; conditions: keratinocytes infected with S. aureus, A. baumannii or P. aeruginosa; peptide at 2 times MIC
Procedure: To specifically determine the anti-inflammatory effect of the synthetic peptide of the present invention, infection with Acinetobacter baumannii, Pseudomonas aeruginosa, or Staphylococcus aureus and a treatment with myxinidin 2 and myxinidin 3 synthetic peptides were carried out, and interleukin-6 (IL-6) and interleukin-8 (IL-8), which are a cytokine and a chemokine, and tumor necrosis factor alpha (TNF-α) were analyzed by enzyme-linked immunosorbent assay.
Specifically, interleukin-6, interleukin-8, and tumor necrosis factor-α were analyzed by a human immune assay kit. Human skin keratinocyte cells were infected with Staphylococcus aureus, Acinetobacter baumannii, or Pseudomonas aeruginosa, which are the bacterial strain having tolerance to antibiotics, followed by a treatment with the peptide at a concentration that is 2 times higher than the minimum inhibitory concentration to have a reaction. After that, only the supernatant was collected and subjected to an enzyme-linked immunosorbent assay.

[6] = system: membrane of Staphylococcus aureus; assay: Confocal microscopy analysis with PI (Propidium iodide); type: cell-based; conditions: reaction for 10 minutes
Procedure: (§4) Specifically, myxinidin 2 or myxinidin 3, which have been synthesized in the above Example 1, was treated with PI (Propidium Iodide) solution and Escherichia coli or Staphylococcus aureus followed by reaction for 10 minutes. After the reaction, only pure Escherichia coli were collected by centrifuge (4,000 rpm) followed by removal of supernatant. Then, by adding 50 μl of physiological saline (PBS), cell aggregate was removed. By using LSM510 confocal microscope, the working mechanism of the peptide on Escherichia coli and Staphylococcus aureus membrane was determined.

[7] = system: membrane of Escherichia coli; assay: as above; type: cell-based; conditions: reaction for 10 minutes
Procedure: as §4

[8] = infection with Acinetobacter baumannii
[9] = infection with Pseudomonas aeruginosa
[10] = infection with Staphylococcus aureus

| Structure (SMILES) | Cell migration / regeneration of scraped keratinocytes [1, 8] | Cell migration / regeneration of scraped keratinocytes [1, 9] | Cell migration / regeneration of scraped keratinocytes [1, 10] | Antimicrobial activity with gelatin (disk diffusion) [2] | Antimicrobial activity with gelatin (disk diffusion) [3] | Antimicrobial activity with gelatin (disk diffusion) [4] | Expression of cytokine and chemokine (IL-6, TNF-α, IL-8; ELISA) [5] | Activity on membrane (PI, confocal microscopy) [6] | Activity on membrane (PI, confocal microscopy) [7] |
| --- | --- | --- | --- | --- | --- | --- | --- | --- | --- |
| CC[C@H](C)[C@H](NC(=O)[C@H](Cc1c[nH]c2ccccc12)NC(=O)[C@H](CCCCN)NC(=O)[C@@H](NC(=O)[C@@H](N)CCCCN)[C@@H](C)CC)C(=O)N[C@@H](CC(C)C)C(=O)N[C@@H](CCCCN)C(=O)N[C@@H](Cc1ccc(O)cc1)C(=O)N[C@@H](Cc1c[nH]c2ccccc12)C(=O)N[C@@H](CCCCN)C(=O)N[C@@H](Cc1c[nH]c2ccccc12)C(=O)N[C@@H](CO)C(N)=O [Myxinidin 2, KIKWILKYWKWS-NH2] (H-KIKWILKYWKWS-NH2; N-terminus assumed) | proliferation with no cell death | fast regeneration rate | Proliferation with no cell death | exhibited the antimicrobial activity | a similar antimicrobial activity was maintained | the antimicrobial activity was maintained | has decreased | work on the membrane of Escherichia coli and Staphylococcus aureus to show PI | work on the membrane of Escherichia coli and Staphylococcus aureus to show PI |
| CC[C@H](C)[C@H](NC(=O)[C@H](Cc1c[nH]c2ccccc12)NC(=O)[C@H](CCCNC(=N)N)NC(=O)[C@@H](NC(=O)[C@@H](N)CCCNC(=N)N)[C@@H](C)CC)C(=O)N[C@@H](CC(C)C)C(=O)N[C@@H](CCCNC(=N)N)C(=O)N[C@@H](Cc1ccc(O)cc1)C(=O)N[C@@H](Cc1c[nH]c2ccccc12)C(=O)N[C@@H](CCCNC(=N)N)C(=O)N[C@@H](Cc1c[nH]c2ccccc12)C(=O)N[C@@H](CO)C(N)=O [Myxinidin 3, RIRWILRYWRWS-NH2] (H-RIRWILRYWRWS-NH2; N-terminus assumed) | fast regeneration rate | proliferation with no cell death | more rapid regeneration | exhibited the antimicrobial activity | a similar antimicrobial activity was maintained | exhibited a slightly higher antimicrobial activity when the treatment is made only with the peptide | has decreased | work on the membrane of Escherichia coli and Staphylococcus aureus to show PI | work on the membrane of Escherichia coli and Staphylococcus aureus to show PI |
